The text below walks through data of ChEMBL document CHEMBL6120948, “Design, Synthesis, and Biological Evaluation of Lysine-Stapled Peptide Inhibitors of p53-MDM2/MDMX Interactions with Potent Antitumor Activity In Vivo” (J Med Chem, 2024).

Some results are limits rather than exact numbers.

The test system of one series is MCF7. As to the kind of experiment: Antiproliferative activity against human MCF7 cells expressing wild-type p53 incubated for 72 hrs by MTT assay. Type of series: functional, cell-based. The settings on record: MCF7, 72 h.
Series [1] is described as follows: Antiproliferative activity against human U-87 MG cells expressing wild-type p53 incubated for 72 hrs by MTT assay. Type of series: functional, cell-based, U-87MG ATCC.
Series [2] can be described thus: Induction of alpha-helical conformation in phosphate buffer at pH 7 at 100 uM by CD analysis. The class given is physicochemical. The settings on record: pH 7, 100 µM.
The nature of series [3]: Drug distribution in cytoplasm of human HCT-116 cells at 40 uM incubated for 4 hrs by Hoechst 33342/DiD dye based confocal microscopy. Type of series: ADME, subcellular. The note with it: hct-116, 4 h.
Series [4] in a line: Drug distribution in nucleus of human HCT-116 cells at 40 uM incubated for 4 hrs by Hoechst 33342/DiD dye based confocal microscopy. The class given is ADME, subcellular. The settings on record: hct-116, 4 h.

On to `CC(=O)N[C@@H](CC(C)C)C(=O)N[C@H](C(=O)N[C@@H](Cc1ccccc1)C(=O)N[C@H]1CCCCNCc2ccc(cc2)CNCCCC[C@@H](C(=O)N[C@@H](CO)C(=O)N[C@@H](C)C(=O)N[C@@H](C)C(N)=O)NC(=O)[C@H](CC(C)C)NC(=O)[C@H](CCC(N)=O)NC(=O)[C@H](C)NC(=O)[C@H](Cc2c[nH]c3ccccc23)NC(=O)[C@H](Cc2ccc(O)cc2)NC(=O)[C@H](Cc2c[nH]cn2)NC1=O)[C@@H](C)O`, for which the IC50 (in the series with MCF7; in series [1]) was over 160 µM in each case. In addition, the Activity in series [2] stood at 11%.

Turning to `CC(=O)N[C@@H](CC(C)C)C(=O)N[C@H](C(=O)N[C@@H](Cc1ccccc1)C(=O)N[C@@H](CCC(=O)O)C(=O)N[C@H]1CCCCNCc2ccc(cc2)CNCCCC[C@@H](C(=O)N[C@@H](CC(C)C)C(=O)N[C@H](C(=O)N[C@@H](CO)C(=O)N[C@@H](C)C(=O)N[C@@H](C)C(N)=O)[C@@H](C)O)NC(=O)[C@H](C)NC(=O)[C@H](Cc2c[nH]c3ccccc23)NC(=O)[C@H](Cc2ccc(O)cc2)NC1=O)[C@@H](C)O`, the values for the IC50 (in the series on MCF7; in series [1]) were 6.91 µM and over 160 µM, respectively. Also, in series [2], the Activity turned out to be 11%.

On to `CC(=O)N[C@@H](CC(C)C)C(=O)N[C@H](C(=O)N[C@@H](Cc1ccccc1)C(=O)N[C@H]1CCCCNCc2cccc(c2)CNCCCC[C@@H](C(=O)N[C@@H](CO)C(=O)N[C@@H](C)C(=O)N[C@@H](C)C(N)=O)NC(=O)[C@H](CC(C)C)NC(=O)[C@H](CCC(N)=O)NC(=O)[C@H](C)NC(=O)[C@H](Cc2c[nH]c3ccccc23)NC(=O)[C@H](Cc2ccc(O)cc2)NC(=O)[C@H](Cc2c[nH]cn2)NC1=O)[C@@H](C)O`, for which the values for the IC50 (in the series with MCF7; in series [1]) were over 160 µM and 52.9 µM, respectively. Moreover, the Activity in series [2] was 11%.

`CSCC[C@H](NC(=O)[C@H](CC(C)C)NC(=O)[C@H](CCC(N)=O)NC(=O)[C@@H]1CCCCNCc2ccccc2CNCCCC[C@H](NC(=O)[C@H](Cc2ccccc2)NC(=O)[C@@H](NC(=O)[C@H](CC(C)C)NC(C)=O)[C@@H](C)O)C(=O)N[C@@H](CCC(=O)O)C(=O)N[C@@H](Cc2ccc(O)cc2)C(=O)N[C@@H](Cc2c[nH]c3ccccc23)C(=O)N1)C(=O)N[C@@H](CCC(N)=O)C(=O)N[C@@H](C)C(=O)N[C@@H](C)C(N)=O`: the IC50 in the series on MCF7 was over 160 µM; in series [1] it was 105 µM. For the same compound, the Activity in series [2] is 11%.

For the compound `CC(=O)N[C@@H](CC(C)C)C(=O)N[C@H](C(=O)N[C@@H](Cc1ccccc1)C(=O)N[C@H]1CCCCNCc2ccccc2CNCCCC[C@@H](C(=O)N[C@@H](CO)C(=O)N[C@@H](C)C(=O)N[C@@H](C)C(N)=O)NC(=O)[C@H](CC(C)C)NC(=O)[C@H](CCC(N)=O)NC(=O)[C@H](C)NC(=O)[C@H](Cc2c[nH]c3ccccc23)NC(=O)[C@H](Cc2ccc(O)cc2)NC(=O)[C@H](Cc2c[nH]cn2)NC1=O)[C@@H](C)O`, the IC50 (with MCF7; in series [1]) was over 160 µM each time. Besides, the Activity in series [2] stood at 11%.

Regarding `CC(C)C[C@H](NC(=O)CCNC(=O)c1ccc2c(c1)C(=O)OC21c2ccc(O)cc2Oc2cc(O)ccc21)C(=O)N[C@H](C(=O)N[C@@H](Cc1ccccc1)C(=O)N[C@H]1CCCCNCc2cccc(c2)CNCCCC[C@@H](C(=O)N[C@@H](CCC(N)=O)C(=O)N[C@@H](CC(C)C)C(=O)N[C@H](C(=O)N[C@@H](CO)C(=O)N[C@@H](C)C(=O)N[C@@H](C)C(N)=O)[C@@H](C)O)NC(=O)[C@H](Cc2c[nH]c3ccccc23)NC(=O)[C@H](Cc2ccc(O)cc2)NC(=O)[C@H](Cc2c[nH]cn2)NC1=O)[C@@H](C)O`, the Drug uptake result in series [3] and in series [4] was “Active” each time.

For `CC(=O)N[C@@H](CC(C)C)C(=O)N[C@H](C(=O)N[C@@H](Cc1ccccc1)C(=O)N[C@H]1CCCCNCc2ccccc2CNCCCC[C@@H](C(=O)N[C@@H](CCC(N)=O)C(=O)N[C@@H](CC(C)C)C(=O)N[C@H](C(=O)N[C@@H](CO)C(=O)N[C@@H](C)C(=O)N[C@@H](C)C(N)=O)[C@@H](C)O)NC(=O)[C@H](Cc2c[nH]c3ccccc23)NC(=O)[C@H](Cc2ccc(O)cc2)NC(=O)[C@H](Cc2c[nH]cn2)NC1=O)[C@@H](C)O`, the values for the IC50 (with MCF7; in series [1]) were 11.3 µM and over 160 µM, respectively. In addition, the Activity in series [2] worked out at 11%.

`CC(=O)N[C@@H](CC(C)C)C(=O)N[C@H](C(=O)N[C@@H](Cc1ccccc1)C(=O)N[C@@H](CCC(=O)O)C(=O)N[C@H]1CCCCNCc2ccccc2CNCCCC[C@@H](C(=O)N[C@@H](CC(C)C)C(=O)N[C@H](C(=O)N[C@@H](CO)C(=O)N[C@@H](C)C(=O)N[C@@H](C)C(N)=O)[C@@H](C)O)NC(=O)[C@H](C)NC(=O)[C@H](Cc2c[nH]c3ccccc23)NC(=O)[C@H](Cc2ccc(O)cc2)NC1=O)[C@@H](C)O`: the IC50 in the series on MCF7 is 145 µM; in series [1], over 160 µM. In series [2], this compound showed an Activity of 11%.

As for `CC(=O)N[C@@H](CC(C)C)C(=O)N[C@H](C(=O)N[C@@H](Cc1ccccc1)C(=O)N[C@H]1CCCCNCC#CCNCCCC[C@@H](C(=O)N[C@@H](CO)C(=O)N[C@@H](C)C(=O)N[C@@H](C)C(N)=O)NC(=O)[C@H](CC(C)C)NC(=O)[C@H](CCC(N)=O)NC(=O)[C@H](C)NC(=O)[C@H](Cc2c[nH]c3ccccc23)NC(=O)[C@H](Cc2ccc(O)cc2)NC(=O)[C@H](Cc2c[nH]cn2)NC1=O)[C@@H](C)O`, the IC50 (in the series with MCF7; in series [1]) was over 160 µM each time. This compound also displayed an Activity in series [2] of 11%.

`CC(=O)N[C@@H](CC(C)C)C(=O)N[C@H](C(=O)N[C@@H](Cc1ccccc1)C(=O)N[C@@H](CCC(=O)O)C(=O)N[C@H]1CCCCNCc2cccc(c2)CNCCCC[C@@H](C(=O)N[C@@H](CC(C)C)C(=O)N[C@H](C(=O)N[C@@H](CO)C(=O)N[C@@H](C)C(=O)N[C@@H](C)C(N)=O)[C@@H](C)O)NC(=O)[C@H](C)NC(=O)[C@H](Cc2c[nH]c3ccccc23)NC(=O)[C@H](Cc2ccc(O)cc2)NC1=O)[C@@H](C)O`: the half-inhibitory concentration (IC50) was over 160 µM in the series with MCF7 and 138 µM in series [1]. The compound further registered an Activity in series [2] of 11%.

With `CSCC[C@H](NC(=O)[C@H](CC(C)C)NC(=O)[C@H](CCC(N)=O)NC(=O)[C@@H]1CCCCNCc2cccc(c2)CNCCCC[C@H](NC(=O)[C@H](Cc2ccccc2)NC(=O)[C@@H](NC(=O)[C@H](CC(C)C)NC(C)=O)[C@@H](C)O)C(=O)N[C@@H](CCC(=O)O)C(=O)N[C@@H](Cc2ccc(O)cc2)C(=O)N[C@@H](Cc2c[nH]c3ccccc23)C(=O)N1)C(=O)N[C@@H](CCC(N)=O)C(=O)N[C@@H](C)C(=O)N[C@@H](C)C(N)=O`, the IC50 in the series on MCF7 was over 160 µM; in series [1], 21.9 µM. Also, the Activity in series [2] amounted to 11%.

Take `CC(=O)N[C@@H](CC(C)C)C(=O)N[C@H](C(=O)N[C@@H](Cc1ccccc1)C(=O)N[C@H]1CCCCNCC#CCNCCCC[C@@H](C(=O)N[C@@H](CCC(N)=O)C(=O)N[C@@H](CC(C)C)C(=O)N[C@H](C(=O)N[C@@H](CO)C(=O)N[C@@H](C)C(=O)N[C@@H](C)C(N)=O)[C@@H](C)O)NC(=O)[C@H](Cc2c[nH]c3ccccc23)NC(=O)[C@H](Cc2ccc(O)cc2)NC(=O)[C@H](Cc2c[nH]cn2)NC1=O)[C@@H](C)O`: the IC50 (in the series with MCF7; in series [1]) was over 160 µM in each case. In series [2], this compound gave an Activity of 11%.

Consider `CC(=O)N[C@@H](CC(C)C)C(=O)N[C@H](C(=O)N[C@@H](Cc1ccccc1)C(=O)N[C@@H](CCC(=O)O)C(=O)N[C@H]1CCCCNCC#CCNCCCC[C@@H](C(=O)N[C@@H](CC(C)C)C(=O)N[C@H](C(=O)N[C@@H](CO)C(=O)N[C@@H](C)C(=O)N[C@@H](C)C(N)=O)[C@@H](C)O)NC(=O)[C@H](C)NC(=O)[C@H](Cc2c[nH]c3ccccc23)NC(=O)[C@H](Cc2ccc(O)cc2)NC1=O)[C@@H](C)O`, for which the IC50 in the series with MCF7 is 19.9 µM; in series [1], over 160 µM. Besides, the Activity in series [2] is 11%.

For `CC(=O)N[C@@H](CC(C)C)C(=O)N[C@H](C(=O)N[C@@H](Cc1ccccc1)C(=O)N[C@H]1CCCCNCc2ccc(cc2)CNCCCC[C@@H](C(=O)N[C@@H](CCC(N)=O)C(=O)N[C@@H](CC(C)C)C(=O)N[C@H](C(=O)N[C@@H](CO)C(=O)N[C@@H](C)C(=O)N[C@@H](C)C(N)=O)[C@@H](C)O)NC(=O)[C@H](Cc2c[nH]c3ccccc23)NC(=O)[C@H](Cc2ccc(O)cc2)NC(=O)[C@H](Cc2c[nH]cn2)NC1=O)[C@@H](C)O`, the half-maximal inhibitory concentration (IC50) (in the series on MCF7; in series [1]) was over 160 µM throughout. The Activity in series [2] is listed as 11%.

On to `CSCC[C@H](NC(=O)[C@H](CC(C)C)NC(=O)[C@H](CCC(N)=O)NC(=O)[C@@H]1CCCCNCC#CCNCCCC[C@H](NC(=O)[C@H](Cc2ccccc2)NC(=O)[C@@H](NC(=O)[C@H](CC(C)C)NC(C)=O)[C@@H](C)O)C(=O)N[C@@H](CCC(=O)O)C(=O)N[C@@H](Cc2ccc(O)cc2)C(=O)N[C@@H](Cc2c[nH]c3ccccc23)C(=O)N1)C(=O)N[C@@H](CCC(N)=O)C(=O)N[C@@H](C)C(=O)N[C@@H](C)C(N)=O`, for which the IC50 was 112 µM in the series on MCF7 and over 160 µM in series [1]. The compound further came in with an Activity in series [2] of 11%.

As for `CSCC[C@H](NC(=O)[C@H](CC(C)C)NC(=O)[C@H](CCC(N)=O)NC(=O)[C@@H]1CCCCNCc2ccc(cc2)CNCCCC[C@H](NC(=O)[C@H](Cc2ccccc2)NC(=O)[C@@H](NC(=O)[C@H](CC(C)C)NC(=O)CCNC(=O)c2ccc3c(c2)C(=O)OC32c3ccc(O)cc3Oc3cc(O)ccc32)[C@@H](C)O)C(=O)N[C@@H](CCC(=O)O)C(=O)N[C@@H](Cc2ccc(O)cc2)C(=O)N[C@@H](Cc2c[nH]c3ccccc23)C(=O)N1)C(=O)N[C@@H](CCC(N)=O)C(=O)N[C@@H](C)C(=O)N[C@@H](C)C(N)=O`, the Drug uptake entry in series [3] was “Not_active”.

Compound Ac-LTFEHYWAQLTS-NH2 showed an Activity in series [2] of 11%.
